From patent US20040049807A1, “Fatty acid desaturase gene and protein for modulating activation of defense signaling pathways in plants” (priority 2003, published 2004)

Tests used:
[1] = test system: PR-1, BGL2 and PR-5 gene transcripts; test: PR gene expression after chemical treatment of plants (northern blot); assay type: in vivo, Arabidopsis
Method: Chemical treatment of plants. Four-week-old plants were sprayed and sub-irrigated with a solution of SA […] or BTH […] in water as previously described (Shah et al. 1997). As controls, plants were similarly treated with water. Leaves were harvested at the indicated times after treatment and quick-frozen in liquid nitrogen. Leaf samples were stored at −80° C.
RNA extraction, northern and dot blot analyses. Large-scale preparation of RNA from Arabidopsis was carried out Small-scale extraction of RNA from one or two leaves was performed in the TRIzol reagent (GIBCO-BRL, Gaithersburg, Md.) following manufacturer's instructions. Northern blot analysis and synthesis of random primed probes for PR-i, BGL2 and PR-5 were synthesized as described earlier (Shah et al. 1997).

PDF1.2 = PDF1.2 gene expression (northern blot); assay type: in vivo, Arabidopsis
Method: FIG. 8. Expression of the SSI2 gene. (FIG. 8A) Histochemical staining of GUS activity in the leaves and inflorescence of transgenic plants expressing an SSI2::: GUS reporter gene. […] The control is a stained leaf from a wt plant. (FIG. 8B) Northern blot analysis of SSI2 (Nö), npr1-5, jar1-1 and ssi2 plants treated with water or 50 μM JA. RNA was extracted at 48 hour (h) post treatment and the blot was sequentially probed with SSI2, PDF1.2, and THI2.1. Ethidium bromide-stained rRNA served as a control for gel loading. (FIG. 8C) Northern blot analysis of plants inoculated with spores of Alternaria brassicicola. Mock (M) or fungal (A) inoculations were carried out as described previously (12). RNA was extracted at 72 h post inoculation and PDF1.2 gene expression was monitored. (FIG. 8D) Northern blot analysis of SSI2, npr1-5, jar1-1, NahG, etr1-1 and ssi2 plants treated with methanol or 50 μM MeJA. The plants were placed around a beaker containing methanol or MeJA diluted in methanol and covered with plastic wrap. RNA was prepared from leaves harvested at 48 h post treatment and analyzed for PDF1.2 gene expression.
FIG. 10. […] Oleic acid (18:1; 0.5 mM, Sigma) or water was injected into the leaves of SSI2 (Nö), ssi2 or ssi2 nahG plants followed by treatment with 50 μM JA or water. Eight to ten individual plants each of SSI2, ssi2 or ssi2 nahG were analyzed in two independent experiments. RNA was extracted at 48 h post treatment and PDF1.2 gene expression was monitored by northern blot analysis. Ethidium bromide-stained rRNA served as a control for gel loading.
RNA extraction and northern analyses. Small-scale extraction of RNA from one or two leaves was performed in the TRIzol reagent (GIBCO-BRL, Gaithersburg, Md.) following the manufacturer's instructions. Northern blot analysis and synthesis of random primed probes for PR-1, BGL2 and PR-5, PDF1.2 and THI2.1 were synthesized.

THI2.1 = THI2.1 gene expression (northern blot); assay type: in vivo, Arabidopsis; settings: ssi2 plants
Method: FIG. 8. Expression of the SSI2 gene. (FIG. 8A) Histochemical staining of GUS activity in the leaves and inflorescence of transgenic plants expressing an SSI2::: GUS reporter gene. A 1631 bp fragment containing the SSI2 promoter was transcriptionally fused upstream of GUS in pBI121 and three independent transgenic lines were analyzed in both T1 and T2 generations. The control is a stained leaf from a wt plant. (FIG. 8B) Northern blot analysis of SSI2 (Nö), npr1-5, jar1-1 and ssi2 plants treated with water or 50 μM JA. RNA was extracted at 48 hour (h) post treatment and the blot was sequentially probed with SSI2, PDF1.2, and THI2.1. Ethidium bromide-stained rRNA served as a control for gel loading. (FIG. 8C) Northern blot analysis of plants inoculated with spores of Alternaria brassicicola. Mock (M) or fungal (A) inoculations were carried out as described previously (12). RNA was extracted at 72 h post inoculation and PDF1.2 gene expression was monitored. (FIG. 8D) Northern blot analysis of SSI2, npr1-5, jar1-1, NahG, etr1-1 and ssi2 plants treated with methanol or 50 μM MeJA. The plants were placed around a beaker containing methanol or MeJA diluted in methanol and covered with plastic wrap. RNA was prepared from leaves harvested at 48 h post treatment and analyzed for PDF1.2 gene expression.
RNA extraction and northern analyses. […]

B. cinerea = test: disease resistance to B. cinerea; assay type: in vivo, Arabidopsis; settings: exogenously applied, ssi2 or ssi2 nahG plants
Method: FIG. 9. Analysis of disease resistance to B. cinerea. Infections with B. cinerea were carried out by wounding the leaves by needle pricks and subsequently spot inoculating spores at the wounded site. The number of pricks made per leaf were based on the leaf size and ranged from three per leaf for SSI2 (Nö) to one per leaf for the ssi2 mutant. Plants were treated with either water or 50 μM JA for 48 h prior to and throughout the infection and the inoculated leaves were photographed at 10 dpi.

SSI2 gene expression = SSI2 gene expression after treatment (northern analysis); assay type: in vivo, Arabidopsis; settings: 12, 24 or 48 hours after treating plants
root growth = test: inhibition of root growth; assay type: in vivo, Arabidopsis; settings: ssi2 plants
[2] = in vitro S-ACP desaturase assay

## CCCCCCCCCCCCCCCCCC(=O)O [18:0, stearic acid]
[1]; exogenous application, wt plants
  PR-1 gene expression: does not induce

## c1ccc2snnc2c1 [BTH, benzothiadiazole]
[1]; ssi2 NPR1 nahG plants
  accumulation of PR-1 transcript: increased
[1]; ssi2 npr1-5 nahG plants
  PR-1 expression: not

## CC/C=C\C[C@H]1C(=O)CC[C@@H]1CC(=O)O [JA, jasmonic acid]
PDF1.2; ssi2 NPR1, ssi2 npr1-5 or jar1-1 plants, 50 μM, 48 h
  PDF1.2 expression: induced only low to undetectable levels
PDF1.2; wt and npr1-5 plants, 50 μM, 48 h
  PDF1.2 expression: activated PDF1.2 expression effectively
THI2.1
  induced activation of the THI2.1 gene: unaffected
B. cinerea
  B. cinerea resistance: failed to restore
SSI2 gene expression
  SSI2 gene expression: did not increase substantially over basal levels
Root growth
  inhibition of root growth: unaffected

## CC/C=C\CC1C(=O)CCC1CC(=O)OC (stereo not drawn) [MeJA, methyl JA]
B. cinerea
  B. cinerea resistance: failed to restore
Root growth
  inhibition of root growth: unaffected

## O=C(O)c1ccccc1O [SA, salicylic acid]
[1]; exogenous application, ssi2 npr1-5 plant
  accumulation of the PR gene transcripts: did not further increase
SSI2 gene expression
  SSI2 gene expression: did not increase substantially over basal levels

## C=C [ethylene]
PDF1.2; 10 or 20 parts per million, ssi2 plants
  PDF1.2 expression: not
PDF1.2; 10 or 20 parts per million, wt plants
  PDF1.2 expression: induced PDF1.2 expression
SSI2 gene expression
  SSI2 gene expression: did not increase substantially over basal levels

## mutant protein: ssi2 mutant S-ACP desaturase with leucine 146 changed to phenylalanine, bacterial-expressed (LRERARELPDDYFVVLVGDMITEEAFPTYQTMLNTLDGVRDETGASPTSWAIWTRAWTAE; (26)..(26) Phe residue instead of Leu present at position corresponding to residue 146 of wild type.; listed as Arabidopsis thaliana)
[2]; 16:0 substrate
  fold less active than wt: ~20 fold
[2]; 18:0 substrate
  fold less active than wt: approximately 10 fold
[2]; in contrast to the wt
  18:16 substrate preference ratio and Δ^9 regiospecificity: unaltered
[2]; overall summary
  activity lower than that of the wt enzyme: 10-20 fold

B1: Wt SSI2: wild-type Arabidopsis SSI2 stearoyl-ACP desaturase (SEQ ID NO:3), expressed in Escherichia coli and purified (protein, listed as Arabidopsis thaliana)
chain: MALKFNPLVASQPYKFPSSTRPPTPSFRSPKFLCLASSSPALSSGPKEVESLKKPFTPPREVHVQVLHSMPPQKIEIFKSMENWAEENLLIHLKDVEKSWQPQDFLPDPASDGFEDQVRELRERARELPDDYFVVLVGDMITEEALPTYQTMLNTLDGVRDETGASPTSWAIWTRAWTAEENRHGDLLNKYLYLSGRVDMRQIEKTIQYLIGSGMDPRTENNPYLGFIYTSFQERATFISHGNTARQAKEHGDIKLAQICGTIAADEKRHETAYTKIVEKLFEIDPDGTVMAFADMMRKKISMPAHLMYDGRNDNLFDNFSSVAQRLGVYTAKDYADILEFLVGRWKIQDLTGLSGEGNKAQDYLCGLAPRIKRLDERAQARAKKGPKIPFSWIHDREVQL
[2]; purified enzyme expressed in Escherichia coli
  specific activity: ~800 nm/min/mg
